Test results reported in patent US8124565B2, “Method of protecting a plant propagation material, a plant, and/or plant organs” (priority 2006, dated 2012).
Where two headings read alike, the source gives them in different places.

Assays:
[1] = tested on: Gäumannomyces graminis; experiment: Fungal growth assay, Gäumannomyces graminis (microtiter plate, PDB); type: cell-based; conditions: 72 hrs
[2] = tested on: Pyrenophora graminea; experiment: Fungal growth assay, Pyrenophora graminea (microtiter plate, PDB); type: cell-based; conditions: 72 hrs
[3] = tested on: Fusarium graminearum; type: cell-based; conditions: 48 hrs
[4] = tested on: Fusarium graminearum; type: in vivo; conditions: seed treatment 20 g/100 kg, corn seeds (cv. Magister) in inoculated soil
[5] = tested on: Rhizoctonia solani; experiment: Rhizoctonia solani/cotton (damping off) seed treatment test; type: in vivo; conditions: seed treatment 200 g/100 kg, cotton seeds in inoculated soil
Protocol: A-2. Rhizoctonia solani/Cotton (Damping Off on Cotton)
A defined amount of mycelium of R. solani is blended with soil and trays are filled with the inoculated soil. The formulated test compounds are applied to cotton seeds. The treated cotton seeds are then sown into the inoculated soil. Until germination the test is stored at 20° C. and a rel. humidity of 90% in the dark. After germination the test is transferred to 25° C. and a rel. humidity of 70% with a photoperiod of 14 h. The evaluation is done by counting the emerged cotton plants and the number of emerged and diseased plants.

[6] = tested on: Pyrenophora graminea; experiment: Pyrenophora graminea/barley (stripe disease) seed treatment test; type: in vivo; conditions: seed treatment 20 g/100 kg, infected winter barley seeds
Protocol: A-1. Pyrenophora graminea/Barley (Stripe Disease on Barley)
After application of the formulated seed treatment onto P. graminea-infected seeds of winter barley the seeds are sown in trays filled with field soil. The trays are kept in a growth room for 3 weeks at 4° C. After this period the trial is transferred to a greenhouse where a temperature of 12° C. and a 14 hr light period is provided. The following assessments are made: emergence count, final stand count, number of infected plants.

| SMILES | Observed control in % (% Cobs) ([1]; 0.5 ppm) | Observed control in % (% Cobs) ([2]; 0.25 ppm) | Observed control in % (% Cobs) ([3]; 0.03125 ppm) | Observed control in % (% Cobs) ([3]; 0.0625 ppm) | Observed control in % (% Cobs) ([3]; 0.125 ppm) | Observed control in % (% Cobs) ([3]; 0.25 ppm) | Observed control in % (% Cobs) ([1]; 0.25 ppm) | activity [4] | Observed control in % (% Cobs) ([2]; 0.5 ppm) | activity [5] | activity [6] |
| --- | --- | --- | --- | --- | --- | --- | --- | --- | --- | --- | --- |
| Cn1cc(C(=O)Nc2ccccc2C2CC2C2CC2)c(C(F)F)n1 (stereo not drawn) [Compound of formula A, reference compound] | 74.8% | 0% | 1.6% | 2.4% | 8.4% | 7.8% | – | – | – | – | – |
| Cc1ccc(C2CC(C)(c3cccnc3)N(C)O2)cc1 (stereo not drawn) [Compound of formula I] | – | – | 0% | 3.5% | 4.4% | 12.5% | 26.0% | 100% | 62.3% | 70% | 100% |
